Reference: paper PMC8846325, “A Photoactivable Natural Product with Broad Antiviral Activity against Enveloped Viruses, Including Highly Pathogenic Coronaviruses” (Antimicrobial Agents and Chemotherapy, 2022)

Columns and labels:
[1] = system: HCoV-229E; test: HCoV-229E-Luc infection inhibition luciferase assay; format: cell-based; conditions: for antiviral activity against HCoV-229E-Luc, screening of related compounds: Huh-7 cells, 1, 5, 10 µM, light exposure; for light dependence of antiviral effect: HCoV-229E, light versus dark
[2] = MTS cell toxicity assay, Huh-7 cells; format: cell-based; conditions: human, Huh-7 cells, 24 h
Method: (§1) A total of 6 × 10^4 Huh-7, Vero-E6, and Vero-81 cells were seeded in 96-well plates and incubated for 16 h at 37°C in a 5% CO2 incubator. The cells were then treated with increasing concentrations of the compound of interest. One hour after inoculation, cells were taken out of the incubator to be exposed to the white light of a biosafety cabinet (BSC) for 10 min, after which cells were further incubated in the dark at 37°C and 5% CO2 for 23 h. The BSC’s light source lamp consists of one fluorescent tube of 36 W, 3,350 lumen, white light. An MTS [3-(4,5-dimethylthiazol-2-yl)-5-(3-carboxymethoxyphenyl)-2-(4-sulfophenyl)-2H-tetrazolium]-based viability assay (Cell Titer 96 aqueous nonradioactive cell proliferation assay; Promega) was performed as recommended by the manufacturer. The absorbance of formazan at 490 nm was detected using a plate reader (ELX 808 Bio-Tek Instruments Inc.). Each measure was performed in triplicate, and each experiment was repeated at least 3 times.
(§2) 6×104 Huh-7, Vero-E6 and Vero-81 cells were seeded in 96-well plates and incubated for 16 h at 37 °C 5% CO2 incubator. The cells were then treated with increasing concentrations of the compound of interest. One hour after inoculation, cells were either left in the incubator (dark condition) or taken out to be exposed to the white light of the biosafety cabinet (BSC) for 10 min (light condition), after which cells were further incubated in the dark at 37 °C 5% CO2 for 23 h. BSC’s light source lamp consists of one fluorescent tube of 36W, 3350 lumen white light. An MTS [3-(4,5-dimethylthiazol-2-yl)-5-(3-carboxymethoxyphenyl)-2-(4-sulfophenyl)- 2H-tetrazolium]-based viability assay (Cell Titer 96 Aqueous non-radioactive cell proliferation assay, Promega) was performed as recommended by the manufacturer. The absorbance of formazan at 490 nm was detected using a plate reader (ELX 808 Bio-Tek […]
(§3) Instruments Inc). […]

[3] = system: Huh-7 cells; test: MTS cell toxicity assay, Huh-7 cells; format: cell-based; conditions: for CC50: 24 h, light exposure
Method: as §1, §2, §3

[4] = system: HCoV-229E; test: Quencher assay (singlet oxygen quenchers); format: cell-based
[5] = MTS cell toxicity assay, Vero-E6 cells; format: cell-based; conditions: African green monkey, 24 h, 10 min light exposure after 1 h, read-out: 50% cytotoxic concentration (CC50)
Method: as §1
(§4) 6×104 Huh-7, Vero-E6 and Vero-81 cells were seeded in 96-well plates and incubated for 16 h at 37 °C 5% CO2 incubator. The cells were then treated with increasing concentrations of the compound of interest. […] The absorbance of formazan at 490 nm was detected using a plate reader (ELX 808 Bio-Tek […]

[6] = system: Vero-E6 cells; test: MTS cell toxicity assay, Vero-E6 cells; format: cell-based; conditions: 24 h in incubator without light exposure
Method: as §1, §4

[7] = MTS cell toxicity assay, Vero-81 cells; format: cell-based; conditions: African green monkey, 24 h, 10 min light exposure after 1 h, read-out: 50% cytotoxic concentration (CC50)
Method: as §1, §4

[8] = system: Vero-81 cells; test: MTS cell toxicity assay, Vero-81 cells; format: cell-based; conditions: 24 h in incubator without light exposure
Method: as §1, §4

[9] = system: HCoV-229E; test: HCoV-229E infectious titers (TCID50); format: cell-based
[10] = system: SARS-CoV-2; test: microbe, parasite or virus in culture; format: cell-based
[11] = system: MERS-CoV; test: microbe, parasite or virus in culture; format: cell-based
[12] = system: HCoV-229E; test: Time-of-addition assay, HCoV-229E-Luc; format: cell-based
[13] = system: SARS-CoV-2; format: cell-based
[14] = system: HCoV-229E; test: Attachment assay (bound virions by qRT-PCR); format: cell-based; conditions: Huh-7-TMPRSS2 cells, 4°C 1 h, 4.1 and 8.2 μM
[15] = system: HCoV-229E; test: Trypsin-induced virus-cell fusion assay; format: cell-based; conditions: Huh-7 cells, NH4Cl, 0.5 and 1 μM
[16] = target: SARS-CoV-2 spike protein (Severe acute respiratory syndrome coronavirus 2, UniProt P0DTC2); format: cell-based
[17] = system: HCoV-229E; test: White light exposure kinetics; format: cell-based
[18] = system: pseudotyped viral particles with envelope proteins of VSV, HCV, SARS-CoV-2, and MERS-CoV; format: cell-based
[19] = system: coxsackievirus (CVB4); format: cell-based, Coxsackievirus B4
[20] = system: hepatitis C virus; format: cell-based, HCV
[21] = system: yellow fever virus (YFV); format: cell-based; conditions: 1 and 2.5 μM, light 30 min prior to inoculation
[22] = system: Sindbis virus (SINV); format: cell-based
[23] = system: SARS-CoV-2; format: cell-based; remark: listed apart in the source
[24] = system: MERS-CoV; format: cell-based; conditions: Mucilair cells, 2.5 μM, 72 h postinoculation
[25] = system: Mucilair primary human bronchial epithelial cells; test: Mucilair toxicity assays (LDH secretion, transepithelial electrical resistance); conditions: 0.25 and 2.5 μM, up to 72 h
[26] = light exposure, read-out: CC50 (μM) 24 h
[27] = against HCoV-229E, Huh-7 cells, normal white light exposure, read-out: IC50
[28] = Huh-7-TMPRSS2 cells, Pba 2 μM, BSC light

C1=Cc2nc1cc1ccc([nH]1)c(-c1ccccc1)c1nc(cc3ccc([nH]3)c2-c2ccccc2)C=C1 [5,15-DPP]
antiviral activity against HCoV-229E-Luc, screening of related compounds [1]: not active at the tested concentrations

C=Cc1c(C)c2cc3nc(c(CC(=O)O)c4[nH]c(cc5nc(cc1[nH]2)C(C)=C5CC)c(C)c4C(=O)O)[C@@H](CCC(=O)O)[C@@H]3C [Chlorin e6, chlorin e6]
light dependence of antiviral effect [1]: light-dependent antiviral effect
IC50 ([1]; Human coronavirus 229E, Huh-7): 720 nM
CC50 at 24 h [2, 26]: 21.4 µM

C=Cc1c(C)c2cc3nc(c4c5[n-]c(cc6nc(cc1[n-]2)C(C=O)=C6CC)c(C)c5C(=O)[C@@H]4C(=O)OC)[C@@H](CCC(=O)OC/C=C(\C)CCC[C@H](C)CCC[C@H](C)CCCC(C)C)[C@@H]3C.[Mg+2] [Chlorophyll b]
antiviral activity against HCoV-229E-Luc, screening of related compounds [1]: not active at the tested concentrations

CCC1=C(C)c2cc3[nH]c(cc4nc(cc5c(CCC(=O)O)c(C)c(cc1n2)n5C)C(CCC(=O)O)=C4C)c(C)c3CC [N-Methyl mesoporphyrin IX, N-methyl mesoporphyrin IX]
light dependence of antiviral effect [1]: light-dependent antiviral effect
antiviral activity under dark conditions ([1]; Huh-7 cells, dark): showed antiviral activity under dark conditions
IC50 [1, 27]: 1250 nM
CC50 ([3]; Huh-7 cells): > 80 µM

[N-]=[N+]=[N-].[Na+] [NaN3]
effect of quencher on antiviral action of Pba [4]: able to reduce the action of Pba

C=Cc1c(C)c2cc3nc(c4c5[nH]c(cc6nc(cc1[nH]2)C(C)=C6CC)c(C)c5C(=O)[C@@H]4C(=O)OC)[C@@H](CCC(=O)O)[C@@H]3C [Pba, pheophorbide a]
activity against HCoV-229E-Luc, extracts and fractions ([1]; Huh-7 cells, 25 μg/ml, 7 h postinoculation): the most active
antiviral activity in the dark ([1]; Huh-7 cells, dark, 10 μM): antiviral activity was observed
antiviral activity in presence or absence of TMPRSS2 ([1]; Huh-7 versus Huh-7-TMPRSS2 cells): No difference in antiviral activity
IC50 ([1]; Human coronavirus 229E, Huh-7): 540 nM
IC50 ([1]; Human coronavirus 229E, Huh-7, 7 h, read-out: 50% inhibitory concentration (IC50) against HCoV-229E-Luc): 510 nM
antiviral activity after pretreatment of virus versus no pretreatment ([1]; virus preincubated 30 min with 2 μM, diluted to 0.2 μM for inoculation, compared with 0.2 μM directly, Huh-7 cells): much stronger
CC50 at 24 h ([2]; 10 min light exposure after 1 h, read-out: 50% cytotoxic concentration (CC50)): 4.4 ± 1.2 µM
CC50 at 24 h [2, 26]: 6.08 µM
concentrations at which no toxicity was exhibited ([3]; Huh-7 cells, 24 h in incubator without light exposure): up to 120 μM
CC50 at 24 h [5]: 5800 ± 1900 nM
concentrations at which no toxicity was exhibited [6]: up to 120 μM
CC50 at 24 h [7]: 5500 ± 2000 nM
concentrations at which no toxicity was exhibited [8]: up to 120 μM
selectivity index (SI), HCoV-229E ([9]; CC50 Huh-7 / IC50 infectious titers): 44
IC50 ([9]; Human coronavirus 229E, Huh-7, 10 min, read-out: IC50, HCoV-229E infectious titers): 100 nM
selectivity index, SARS-CoV-2 [10]: 32
IC50 ([10]; Severe acute respiratory syndrome coronavirus 2, Vero C1008, read-out: IC50, SARS-CoV-2 infectious titers): 180 nM
selectivity index, MERS-CoV [11]: 24
IC50 ([11]; Middle East respiratory syndrome-related coronavirus, Huh-7, read-out: IC50, MERS-CoV infectious titers): 180 nM
infectivity, compound added more than 2 h after inoculation [12]: normal levels of infectivity
inhibition of infection, compound added before inoculation (pretreatment of the cells) [12, 28]: no inhibition of infection
inhibition of infection, compound present during inoculation [12, 28]: strong inhibition of infection
infectivity, compound added more than 2 h after inoculation [13]: normal levels of infectivity
inhibition of infection, compound added before inoculation (pretreatment of the cells) [13]: no inhibition of infection
inhibition of infection, compound present during inoculation [13]: strong inhibition of infection
virus attachment (bound HCoV-229E RNA levels) [14]: only a slight and nonsignificant decrease in RNA levels
infection under trypsin-mediated fusion conditions [15]: strongly inhibited infection levels
spike-induced cell-cell fusion (syncytium formation) [16]: cannot prevent cell-cell fusion
antiviral effect at inactive concentration with long light exposure ([17]; 0.02 μM, 80 min light exposure): no antiviral effect
inhibitory effect with longer light exposure times ([17]; 0.02, 0.2, 2 μM, light 5 to 80 min): increased inhibitory effect
pseudoparticle infection [18]: inhibited pseudoparticle infection regardless of the nature of the viral envelope protein but only under light conditions
antiviral activity on CVB4 (nonenveloped) [19]: not active
antiviral activity on HCV (enveloped) [20]: clear antiviral effect
antiviral activity on YFV (enveloped) [21]: clear antiviral effect
antiviral activity on SINV (enveloped) [22]: clear antiviral effect
decrease of viral titers, SARS-CoV-2 [23]: more than 1 log10
viral RNA levels of SARS-CoV-2 [23]: significantly decreased
decrease of viral titers, MERS-CoV [24]: more than 1 log10
viral RNA levels of MERS-CoV [24]: significantly decreased
toxicity (LDH secretion and transepithelial electrical resistance) [25]: No toxicity was observed

C=Cc1c(C)c2cc3nc(c4c5[nH]c(cc6nc(cc1[nH]2)C(C)=C6CC)c(C)c5C(=O)C4)[C@@H](CCC(=O)O)[C@@H]3C [PyroPba, pyropheophorbide a]
light dependence of antiviral effect [1]: light-dependent antiviral effect
IC50 ([1]; Human coronavirus 229E, Huh-7): 350 nM
CC50 at 24 h [2, 26]: 2.67 µM
toxicity on Huh-7 cells, screening of related compounds ([3]; 5, 10, and 25 µM, light): toxic at tested concentrations

O=C1OC2(c3cc(I)c(O)c(I)c3Oc3c2cc(I)c(O)c3I)c2c(Cl)c(Cl)c(Cl)c(Cl)c21 [Rose Bengale]
antiviral activity against HCoV-229E-Luc, screening of related compounds [1]: moderate antiviral activity
IC50 [1, 27]: 2860 nM
CC50 ([3]; Huh-7 cells): > 80 µM
